The text below walks through data of ChEMBL document CHEMBL5335798 (J Med Chem, 2024).

This data set in a line: Permeability of compound at pH 7.4 at 200 uM measured after 5 hrs by PAMPA assay. For orientation: PAMPA measures passive passage across an artificial lipid membrane.

As a reminder, the Papp is the rate of passage across a membrane or cell layer, normalised by area and donor concentration. For the molecule `CCC([Se]c1ccc2ccccc2c1)c1nc(N)nc(N2CCN(C)CC2)n1` (stereo unspecified), the Papp at 5 h, 200 µM was found to be 10.5 ×10⁻⁶ cm/s.
